Laboratory results reported in patent US11040958B2, “Triazole antimicrobial derivative, pharmaceutical composition and use thereof” (priority 2017, dated 2021).
Like-named read-outs stand apart in the source and are kept apart here.

Legend:
[1] = Solid stability test (25°C, RH 60%, 30 days); assay type: physicochemical; conditions: 25°C±2°C, relative humidity 60%±2%
Method: Experimental conditions: 25° C.±2° C., relative humidity 60%±2%
Experimental instrument: Agilent 1260 HPLC; chamber for stability test
Experimental method: each compound of the present disclosure was packaged (the inner packaging material was a penicillin bottle; the outer packaging material was a double-layer aluminum foil bag, and a desiccant was added inside and outside the package), placed in the chamber for stability test, at a temperature of 25° C.±2° C. and a relative humidity of 60%±2%. The degradation situation of the compounds for 30 days was examined. The contents of total impurities before and after 30 days of each compound were compared and the results were as follows: […]

[2] = Pharmacokinetics after single intravenous administration in rats (plasma voriconazole); conditions: for T1/2 / AUClast: rat, in vivo, 2.5 mg/kg
Method: Dosage for administration: 2.5 mg/kg (calculated as voriconazole)
Dosing volume for administration: 2.5 ml/kg
Drug concentration: 1 mg/mL (calculated as voriconazole)
Route of administration: tail vein injection Experimental animals: SD rats, SPF grade, weighing 180-220 g, half male and half female; the SD rats were randomized into groups of 6 animals each, three males and three females in each group. Experimental method: Blood samples were collected at different time points after tail vein administration, and the plasma concentrations of voriconazole were measured.

[3] = Solubility test in deionized water (HPLC, external calibration); assay type: physicochemical; conditions: for solubility at 30 min: 25 °C, thermodynamic from solid
Method: Experimental condition: 25±2° C.
Dissolving medium: deionized water
Experimental method: 1 mg voriconazole and appropriate amount of each compound were weighed, placed in 1 ml deionized water separately, shaken vigorously for 30 s every 5 mins for 30 mins.

[4] = system: Candida albicans ATCC10231; experiment: Systemic fungal infection in mice, intravenous administration, survival; assay type: in vivo; conditions: ICR mice, tail vein, 5 mg/kg (calculated as voriconazole) once daily for 5 days
Method: ICR mice, weighing 18-22 g, male, provided by the Hubei Experimental Animal Center.
The standard strain Candida albicans was purchased from the American Type Culture Collection, and the strain number was ATCC10231.
Before the experiment, a small amount of Candida albicans was picked from the SDA medium preserved at 4° C. by inoculation circle, and inoculated into 1 ml YPD (Yeast Extract Peptone Dextrose Medium, the same below) culture medium, under shake cultivation at 30° C., 200 rpm, activated for 16 hours to make the fungus in the late stage of the exponential growth phase. Blood cell counting plate was used to count. The concentration of the broth was adjusted to 1*10^3-5*10^3 CFU/ml with RPMI1640 (Roswell Park Memorial Institute 1640, the same below) culture medium. The Candida albicans monoclone on the SDA plate was picked and inoculated into 1 ml YPD medium, cultured at 35° C., 200 rpm for 16 hours to the late exponential growth phase, 1% of which was then inoculated in fresh medium for 6 hours, centrifuged at 1000×g for 5 mins, washed three times with saline until the supernatant was colorless, while hemocytometer was used to count. The cell concentration was adjusted to 5*10^6/ml. The tail vein injection of 0.1 ml/10 g was carried out to cause a systemic fungal infection in mice. The mice were randomized into groups of 10 each. Since voriconazole was insoluble in vehicle (physiological saline), the mice of the voriconazole group in the test were injected a commercially available voriconazole (Pfizer, product lot number Z467001), that is, sulfobutyl ether-β-cyclodextrin used as a solubilizer, while other groups used physiological saline as a solvent. After establishing a systemic fungal infection model in mice for 2 hours, each administration group was administered with 5 mg/kg (calculated as voriconazole) drug in the tail vein, with the volume for administration of 0.1 ml/10 g. The mice in the model group were administered 0.1 ml/10 g of 0.9% sodium chloride solution, once daily, for 5 consecutive days. The death situation of the mice was inspected and the survival time was recorded. After a total of 7 days of observation, all dead mice were treated with fire using ethanol.

SMILES | Content increase of total impurity (25° C., placed for 30 days) [1] [%] | T1/2 [2] | Solubility ([3]; deionized water, 25±2°C) [mg/mL] | other results
CC(OC(=O)OCCS)[n+]1cnn(C[C@](O)(c2ccc(F)cc2F)[C@@H](C)c2ncncc2F)c1 (some centres unmarked) [Compound 16031] | 0.97 | – | – | –
CC(OC(=O)N(C)c1ncccc1COC(=O)C[C@H](N)C(=O)O)[n+]1cnn(C[C@](O)(c2ccc(F)cc2F)[C@@H](C)c2ncncc2F)c1.[Cl-] (some centres unmarked) [QR16003] | 1.37 | similar | >50 | –
CC(OC(=O)N(C)c1ncccc1COC(=O)CCC(=O)[O-])[n+]1cnn(C[C@](O)(c2ccc(F)cc2F)[C@@H](C)c2ncncc2F)c1.[Cl-].[Na+] (some centres unmarked) [QR16004] | – | – | >50 | survival rate of mice, day 1 ([4]; day 1): 100%; survival rate of mice, day 2 ([4]; day 2): 100%; survival rate of mice, day 3 ([4]; day 3): 100%; survival rate of mice, day 4 ([4]; day 4): 90%; survival rate of mice, day 5 ([4]; day 5): 90%; survival rate of mice, day 6 ([4]; day 6): 80%; AUClast [2]: 9586 ± 2352 ng·h/mL
CC(OC(=O)N(C)c1ncccc1COC(=O)[C@@H](N)CCCN)[n+]1cnn(C[C@](O)(c2ccc(F)cc2F)[C@@H](C)c2ncncc2F)c1.Cl.Cl.Cl.[I-] (some centres unmarked) [QR16006] | 1.14 | – | >50 | –
CC(OC(=O)N(C)c1ncccc1COC(=O)[C@@H](N)CCCN)[n+]1cnn(C[C@](O)(c2ccc(F)cc2F)[C@@H](C)c2ncncc2F)c1.O=P([O-])(O)O (some centres unmarked) [QR16011] | 0.96 | – | >50 | –
CC(OC(=O)N(C)c1ncccc1COC(=O)[C@@H](N)CCCN)[n+]1cnn(C[C@](O)(c2ccc(F)cc2F)[C@@H](C)c2ncncc2F)c1.O=[N+]([O-])[O-] (some centres unmarked) [QR16012] | 0.92 | – | >50 | –
CC(OC(=O)N(C)c1ncccc1COC(=O)C(N)Cc1ccc(O)cc1)[n+]1cnn(CC(O)(c2ccc(F)cc2F)C(C)c2ncncc2F)c1.Cl.Cl.[Cl-] (centres unmarked) [QR16018] | 1.15 | – | >50 | –
CNCCC[C@H](N)C(=O)OCc1cccnc1N(C)C(=O)OC(C)[n+]1cnn(C[C@](O)(c2ccc(F)cc2F)[C@@H](C)c2ncncc2F)c1.[Cl-] (some centres unmarked) [QR16019] | 0.88 | – | >50 | –
CNCC[C@H](N)C(=O)OCc1cccnc1N(C)C(=O)OC(C)[n+]1cnn(C[C@](O)(c2ccc(F)cc2F)[C@@H](C)c2ncncc2F)c1 (some centres unmarked) [QR16021] | 1.14 | – | – | AUClast ([2]; both, SD, iv): 7056 ± 2532 ng·h/mL; solubility at 30 min ([3]; deionized water, 25±2°C): > 50 mg/mL
CC(OC(=O)OCCCCOP(=O)(O)O)[n+]1cnn(C[C@](O)(c2ccc(F)cc2F)[C@@H](C)c2ncncc2F)c1 (some centres unmarked) [QR16024] | 2.84 | similar | >50 | –
CC(OC(=O)OCCCCCOP(=O)(O)O)[n+]1cnn(C[C@](O)(c2ccc(F)cc2F)[C@@H](C)c2ncncc2F)c1 (some centres unmarked) [QR16025] | 1.57 | similar | >50 | –
CC(OC(=O)OCCOCCOCCOP(=O)(O)O)[n+]1cnn(C[C@](O)(c2ccc(F)cc2F)[C@@H](C)c2ncncc2F)c1 (some centres unmarked) [QR16033] | – | similar | >50 | –
CC(OC(=O)SC[C@H](N)C(=O)O)[n+]1cnn(C[C@](O)(c2ccc(F)cc2F)[C@@H](C)c2ncncc2F)c1 (some centres unmarked) [QR16034] | – | similar | – | Solubility [3]: 12.5 mg/mL
CC(OC(=O)NCC(=O)O)[n+]1cnn(C[C@](O)(c2ccc(F)cc2F)[C@@H](C)c2ncncc2F)c1 (some centres unmarked) [QR16038] | – | similar | – | –
CC(OC(=O)NCC[C@H](N)C(=O)O)[n+]1cnn(C[C@](O)(c2ccc(F)cc2F)[C@@H](C)c2ncncc2F)c1.Cl.[Cl-] (some centres unmarked) [QR16039] | 1.22 | similar | – | –
C[C@@H](c1ncncc1F)[C@](O)(Cn1c[n+](CC(=O)O)cn1)c1ccc(F)cc1F [QR16043] | – | similar | – | –
CC(OC(=O)OCCOP(=O)(O)O)[n+]1cnn(C[C@](O)(c2ccc(F)cc2F)[C@@H](C)c2ncncc2F)c1 (some centres unmarked) [QR16046] | 0.79 | – | – | solubility at 30 min ([3]; deionized water, 25±2°C): > 50 mg/mL
CC(OC(=O)N(C)c1ncccc1COC(=O)CN)[n+]1cnn(C[C@](O)(c2ccc(F)cc2F)[C@@H](C)c2ncncc2F)c1.O=S(=O)([O-])O (some centres unmarked) [SF16001] | 0.37 | – | >50 | –
CC(OC(=O)N(C)c1ncccc1COC(=O)[C@@H](N)CCCN)[n+]1cnn(C[C@](O)(c2ccc(F)cc2F)[C@@H](C)c2ncncc2F)c1 (some centres unmarked) [SF16002] | 0.67 | – | – | solubility at 30 min ([3]; deionized water, 25±2°C): > 50 mg/mL
CC(OC(=O)N(C)c1ncccc1COC(=O)[C@@H](N)CCC(N)=O)[n+]1cnn(C[C@](O)(c2ccc(F)cc2F)[C@@H](C)c2ncncc2F)c1.O=S(=O)([O-])O (some centres unmarked) [SF16013] | 0.48 | – | – | –
CC(OC(=O)N(C)c1ncccc1COC(=O)[C@@H](N)CC(N)=O)[n+]1cnn(C[C@](O)(c2ccc(F)cc2F)[C@@H](C)c2ncncc2F)c1.O=S(=O)([O-])O (some centres unmarked) [SF16014] | 0.36 | – | – | –
CC(OC(=O)N(C)c1ncccc1COC(=O)[C@@H](N)CO)[n+]1cnn(C[C@](O)(c2ccc(F)cc2F)[C@@H](C)c2ncncc2F)c1.O=S(=O)([O-])O (some centres unmarked) [SF16015] | 0.32 | – | – | –
CC(OC(=O)N(C)c1ncccc1COC(=O)[C@@H](N)[C@@H](C)O)[n+]1cnn(C[C@](O)(c2ccc(F)cc2F)[C@@H](C)c2ncncc2F)c1.O=S(=O)([O-])O (some centres unmarked) [SF16016] | 0.49 | – | – | –
CC(OC(=O)N(C)c1ncccc1COC(=O)[C@@H](N)CCCCN)[n+]1cnn(C[C@](O)(c2ccc(F)cc2F)[C@@H](C)c2ncncc2F)c1 (some centres unmarked) [SF16017] | 0.46 | – | – | –
CNCC(=O)OCc1cccnc1N(C)C(=O)OC(C)[n+]1cnn(C[C@](O)(c2ccc(F)cc2F)[C@@H](C)c2ncncc2F)c1.O=S(=O)([O-])O (some centres unmarked) [SF16020] | 0.62 | – | – | –
C[C@@H](c1ncncc1F)[C@](O)(Cn1cncn1)c1ccc(F)cc1F [Voriconazole, reference compound] | – | – | – | plasma concentration of voriconazole ([2]; control group of voriconazole dissolved in physiological saline, tail vein injection, SD rats): not detected; solubility at 30 min ([3]; deionized water, 25±2°C): < 1 mg/mL
